Values after ≈ are worked out from the molar mass of the structure shown.
How the values were obtained:
Assay type in all cases: cell-based
[1] = test system: Ps. maltophilia, IID-1275; assay: Antibacterial activity (MIC), Ps. maltophilia IID-1275; settings: for MIC: Stenotrophomonas maltophilia, IID1275, Ps. maltophilia
Protocol: (§1) The antibacterial activity assays were performed by the method specified by Japan Society of Chemotherapy (Chemotherapy 29(1), 76 (1981). The table of antibacterial activity is followed by the reaction schemes for the synthesis of various spiro ring-containing cyclic amine derivatives, intermediate compounds for synthesis of quinolone rings and synthesis of various spiro compounds.

[2] = test system: E. coli, NIHJ; assay: Antibacterial activity (MIC), E. coli NIHJ; settings: for MIC: Escherichia coli
Protocol: as §1

[3] = test system: Ps. aeruginosa, 32104; assay: Antibacterial activity (MIC), Ps. aeruginosa 32104; settings: for MIC: Pseudomonas aeruginosa, 32104, Ps. aeruginosa; for Antibacterial Activity (MIC): Ps. aeruginosa
Protocol: as §1

[4] = test system: S. aureus, 209P; assay: Antibacterial activity (MIC), S. aureus 209P; settings: for MIC: Staphylococcus aureus
Protocol: as §1

[5] = test system: Str. pyogenes, G-36; assay: Antibacterial activity (MIC), Str. pyogenes G-36; settings: for MIC: Streptococcus pyogenes, G36, Str. pyogenes; for Antibacterial Activity (MIC): Str. pyogenes
Protocol: as §1

[6] = test system: Pr. vulgaris, 08601; assay: Antibacterial activity (MIC), Pr. vulgaris 08601; settings: for MIC: Proteus vulgaris
Protocol: as §1

[7] = test system: S. flexneri, 2A 5503; assay: Antibacterial activity (MIC), S. flexneri 2A 5503; settings: for MIC: Shigella flexneri, 2A5503
Protocol: as §1

[8] = test system: Str. faecalis, ATCC-19433; assay: Antibacterial activity (MIC), Str. faecalis ATCC-19433; settings: for MIC: Enterococcus faecalis, ATCC19433, Str. faecalis; for Antibacterial Activity (MIC): Str. faecalis
Protocol: as §1

[9] = test system: Ser. marcescens, 10100; assay: Antibacterial activity (MIC), Ser. marcescens 10100; settings: for MIC: Serratia marcescens, 10100, Ser. marcescens
Protocol: as §1

[10] = test system: Pr. mirabillis, IF0-3849; assay: Antibacterial activity (MIC), Pr. mirabillis IF0-3849
Protocol: as §1

[11] = test system: S. epidermidis, 56500; assay: Antibacterial activity (MIC), S. epidermidis 56500; settings: for MIC: Staphylococcus epidermidis, 56500, S. epidermidis; for Antibacterial Activity (MIC): S. epidermidis
Protocol: as §1

[12] = test system: Ps. aeruginosa, 32121; assay: Antibacterial activity (MIC), Ps. aeruginosa 32121; settings: for MIC: Pseudomonas aeruginosa, 32121, Ps. aeruginosa
Protocol: as §1

Structure (SMILES): Cc1c(N2CC(N)C3(CC3)C2)c(F)cc2c(=O)c(C(=O)O)cn(C3CC3)c12 (single isomer, unassigned; (-)) [Compound 55b, (-)-7-(7-Amino-5-azaspiro[2.3]heptan-5-yl)-1-cyclopropyl-6-fluoro-8-methyl-4-oxo-1,4-dihydroquinoline-3-carboxylic acid]
- MIC [1]: ≤ 0.05 µg/mL
- MIC [2]: ≤ 0.05 µg/mL
- MIC [3]: ≤ 0.05 µg/mL
- MIC [4]: ≤ 0.05 µg/mL
- MIC [5]: 0.1 µg/mL (≈ 0.269 µM)
- MIC [6]: ≤ 0.05 µg/mL
- MIC [7]: ≤ 0.05 µg/mL
- MIC [8]: 0.1 µg/mL (≈ 0.269 µM)
- MIC [9]: 0.1 µg/mL (≈ 0.269 µM)
- MIC [10]: ≤ 0.05 µg/mL
- MIC [11]: ≤ 0.05 µg/mL
- MIC [12]: ≤ 0.05 µg/mL

Structure (SMILES): N[C@@H]1CN(c2nc3c(cc2F)c(=O)c(C(=O)O)cn3-c2ccc(F)cc2F)CC12CC2 [Compound 111b, (-)-7-[7-(S)-amino-5-azaspiro[2.3]heptan-5-yl)-6-fluoro-1-(2,4-difluorophenyl)-1,4-dihydro-4-oxo-1,8-naphthyridine-3-carboxylate]
- MIC [1]: 0.2 µg/mL (≈ 0.465 µM)
- MIC [2]: ≤ 0.05 µg/mL
- MIC [3]: 0.2 µg/mL (≈ 0.465 µM)
- MIC [4]: ≤ 0.05 µg/mL
- MIC [5]: 0.2 µg/mL (≈ 0.465 µM)
- MIC [6]: ≤ 0.05 µg/mL
- MIC [7]: ≤ 0.05 µg/mL
- MIC [8]: 0.39 µg/mL (≈ 0.906 µM)
- MIC [9]: 0.1 µg/mL (≈ 0.232 µM)
- MIC [10]: 0.2 µg/mL (≈ 0.465 µM)
- MIC [11]: 0.1 µg/mL (≈ 0.232 µM)
- MIC [12]: 0.1 µg/mL (≈ 0.232 µM)

Structure (SMILES): O=C(O)c1cn(C2CC2)c2c(F)c(N3CC(CO)C4(CCC4)C3)c(F)cc2c1=O (stereo not drawn) [Compound 108, 1-Cyclopropyl-6,8,difluoro-7-(8-hydroxymethyl-6-azaspiro-[3.4]octan-6-yl)-4-oxo-1,4-dihydroquinoline-3-carboxylic acid]
- MIC [1]: 1.56 µg/mL (≈ 3.86 µM)
- MIC [2]: 0.2 µg/mL (≈ 0.495 µM)
- MIC [3]: 1.56 µg/mL (≈ 3.86 µM)
- MIC [4]: ≤ 0.05 µg/mL
- MIC [5]: 0.39 µg/mL (≈ 0.964 µM)
- MIC [6]: 0.1 µg/mL (≈ 0.247 µM)
- MIC [7]: 0.2 µg/mL (≈ 0.495 µM)
- MIC [8]: 0.2 µg/mL (≈ 0.495 µM)
- MIC [9]: 1.56 µg/mL (≈ 3.86 µM)
- MIC [10]: 0.78 µg/mL (≈ 1.93 µM)
- MIC [11]: ≤ 0.05 µg/mL
- MIC [12]: 0.39 µg/mL (≈ 0.964 µM)

Structure (SMILES): NC1CN(c2c(F)cc3c(=O)c(C(=O)O)cn(C4CC4)c3c2Cl)CC12CC2 (single isomer, unassigned) [Compound 32a, 7-(7-amino-5-azaspiro[2.4]heptan-5-yl)-8-chloro-1-cyclopropyl-6-fluoro-1,4-dihydro-4-oxoquinoline-3-carboxylic acid]
- MIC [1]: 0.1 µg/mL (≈ 0.255 µM)
- MIC [2]: ≤ 0.05 µg/mL
- Antibacterial Activity (MIC) [3]: 0.39 µg/mL
- MIC [4]: 0.1 µg/mL (≈ 0.255 µM)
- MIC [5]: 0.78 µg/mL (≈ 1.99 µM)
- MIC [6]: ≤ 0.05 µg/mL
- MIC [7]: ≤ 0.05 µg/mL
- Antibacterial Activity (MIC) [8]: 0.39 µg/mL
- MIC [9]: 0.1 µg/mL (≈ 0.255 µM)
- MIC [10]: 0.1 µg/mL (≈ 0.255 µM)
- Antibacterial Activity (MIC) [11]: 0.20 µg/mL
- MIC [12]: 0.1 µg/mL (≈ 0.255 µM)

Structure (SMILES): C[C@H]1COc2c(N3CC(N)C4(CC4)C3)c(F)cc3c(=O)c(C(=O)O)cn1c23 (single isomer, unassigned; (-)) [Compound 36b]
- MIC [1]: 0.39 µg/mL (≈ 1.04 µM)
- MIC [2]: ≤ 0.05 µg/mL
- MIC [3]: 0.2 µg/mL (≈ 0.536 µM)
- MIC [4]: ≤ 0.05 µg/mL
- MIC [5]: 0.39 µg/mL (≈ 1.04 µM)
- MIC [6]: ≤ 0.05 µg/mL
- MIC [7]: ≤ 0.05 µg/mL
- MIC [8]: 0.39 µg/mL (≈ 1.04 µM)
- MIC [9]: 0.2 µg/mL (≈ 0.536 µM)
- MIC [10]: 0.1 µg/mL (≈ 0.268 µM)
- MIC [11]: 0.1 µg/mL (≈ 0.268 µM)
- MIC [12]: 0.1 µg/mL (≈ 0.268 µM)

Structure (SMILES): NC1CN(c2c(F)cc3c(=O)c(C(=O)O)cn(C4CC4)c3c2Cl)CC12CC2 (single isomer, unassigned) [Compound 32b, 7-(7-amino-5-azaspiro[2.4]heptan-5-yl)-8-chloro-1-cyclopropyl-6-fluoro-1,4-dihydro-4-oxoquinoline-3-carboxylic acid]
- Antibacterial Activity (MIC) ([1]; Ps. maltophilia): ≤ 0.05 µg/mL
- Antibacterial Activity (MIC) [2]: ≤ 0.05 µg/mL
- Antibacterial Activity (MIC) [3]: 0.10 µg/mL
- Antibacterial Activity (MIC) [4]: ≤ 0.05 µg/mL
- Antibacterial Activity (MIC) [5]: 0.39 µg/mL
- Antibacterial Activity (MIC) [6]: ≤ 0.05 µg/mL
- Antibacterial Activity (MIC) [7]: ≤ 0.05 µg/mL
- Antibacterial Activity (MIC) [8]: 0.10 µg/mL
- Antibacterial Activity (MIC) ([9]; Ser. marcescens): ≤ 0.05 µg/mL
- Antibacterial Activity (MIC) [10]: ≤ 0.05 µg/mL
- Antibacterial Activity (MIC) [11]: ≤ 0.05 µg/mL
- Antibacterial Activity (MIC) ([12]; Ps. aeruginosa): ≤ 0.05 µg/mL

Structure (SMILES): NC1CN(c2c(F)cc3c(=O)c(C(=O)O)cn(C4CC4)c3c2F)CC12CCCC2 (stereo not drawn) [Compound 95, 7-(4-amino-2-azaspiro[4.4]nonan-2-yl)-1-cyclopropyl-6,8-difluoro-4-oxo-1,4-dihydroquinoline-3-carboxylic acid]
- MIC [1]: 0.1 µg/mL (≈ 0.248 µM)
- MIC [2]: ≤ 0.05 µg/mL
- MIC [3]: 0.39 µg/mL (≈ 0.967 µM)
- MIC [4]: ≤ 0.05 µg/mL
- MIC [5]: 0.2 µg/mL (≈ 0.496 µM)
- MIC [6]: ≤ 0.05 µg/mL
- MIC [7]: ≤ 0.05 µg/mL
- MIC [8]: 0.2 µg/mL (≈ 0.496 µM)
- MIC [9]: 0.1 µg/mL (≈ 0.248 µM)
- MIC [10]: ≤ 0.05 µg/mL
- MIC [11]: 0.1 µg/mL (≈ 0.248 µM)
- MIC [12]: 0.2 µg/mL (≈ 0.496 µM)

Structure (SMILES): NC1CN(c2c(F)cc3c(=O)c(C(=O)O)cn(C4CC4)c3c2F)CC12CC2 (single isomer, unassigned; (+)) [Compound 31a, (+)-7-(7-Amino-5-azaspiro[2.4]heptan-5-yl)-1-cyclopropyl-6,8-difluoro-1,4-dihydro-4-oxoquinoline-3-carboxylic Acid]
- MIC [1]: 0.1 µg/mL (≈ 0.266 µM)
- MIC [2]: ≤ 0.05 µg/mL
- Antibacterial Activity (MIC) [3]: 0.20 µg/mL
- MIC [4]: 0.1 µg/mL (≈ 0.266 µM)
- Antibacterial Activity (MIC) [5]: 1.57 µg/mL
- MIC [6]: ≤ 0.05 µg/mL
- MIC [7]: ≤ 0.05 µg/mL
- Antibacterial Activity (MIC) [8]: 0.79 µg/mL
- MIC [9]: ≤ 0.05 µg/mL
- MIC [10]: 0.1 µg/mL (≈ 0.266 µM)
- Antibacterial Activity (MIC) [11]: 0.39 µg/mL
- MIC [12]: 0.1 µg/mL (≈ 0.266 µM)

Structure (SMILES): N[C@@H]1CN(c2cc3c(cc2F)c(=O)c(C(=O)O)cn3C2CC2)CC12CC2 [Compound 33b, (-)-7-[7-(S)-amino-5-azaspiro[2.3]heptan-5-yl)-1-cyclopropyl-6-fluoro-1,4-dihydro-4-oxoquinoline-3-carboxylic acid]
- MIC [1]: 0.1 µg/mL (≈ 0.28 µM)
- MIC [2]: ≤ 0.05 µg/mL
- MIC [3]: ≤ 0.05 µg/mL
- MIC [4]: ≤ 0.05 µg/mL
- MIC [5]: 0.2 µg/mL (≈ 0.56 µM)
- MIC [6]: ≤ 0.05 µg/mL
- MIC [7]: ≤ 0.05 µg/mL
- MIC [8]: 0.2 µg/mL (≈ 0.56 µM)
- MIC [9]: ≤ 0.05 µg/mL
- MIC [10]: ≤ 0.05 µg/mL
- MIC [11]: 0.1 µg/mL (≈ 0.28 µM)
- MIC [12]: ≤ 0.05 µg/mL

Structure (SMILES): NC1CN(c2c(F)cc3c(=O)c(C(=O)O)cn(C4CC4)c3c2F)CC12CC2 (stereo not drawn) [Compound 31, 7-(7-Amino-5-azaspiro[2.4]heptan-5-yl)-1-cyclopropyl-6,8-difluoro-1,4-dihydro-4-oxoquinoline-3-carboxylic Acid]
- MIC [1]: ≤ 0.05 µg/mL
- MIC [2]: ≤ 0.05 µg/mL
- MIC [3]: 0.1 µg/mL (≈ 0.266 µM)
- MIC [4]: ≤ 0.05 µg/mL
- MIC [5]: 0.39 µg/mL (≈ 1.04 µM)
- MIC [6]: ≤ 0.05 µg/mL
- MIC [7]: ≤ 0.05 µg/mL
- MIC [8]: 0.2 µg/mL (≈ 0.533 µM)
- MIC [9]: ≤ 0.05 µg/mL
- MIC [10]: ≤ 0.05 µg/mL
- MIC [11]: 0.1 µg/mL (≈ 0.266 µM)
- MIC [12]: ≤ 0.05 µg/mL

Structure (SMILES): C[C@H]1COc2c(N3CC(N)C4(CC4)C3)c(F)cc3c(=O)c(C(=O)O)cn1c23 (stereo partly drawn) [Compound 36, 10-(7-Amino-5-azaspiro[2.4]heptan-5-yl)-9-fluoro-2,3-dihydro-3-(S)-methyl-7-oxo-7H-pyrido[1,2,3-de][1.4]-benzoxazine-6-carboxylic acid]
- MIC [1]: 0.39 µg/mL (≈ 1.04 µM)
- MIC [2]: ≤ 0.05 µg/mL
- MIC [3]: 0.2 µg/mL (≈ 0.536 µM)
- MIC [4]: 0.1 µg/mL (≈ 0.268 µM)
- MIC [5]: 0.39 µg/mL (≈ 1.04 µM)
- MIC [6]: ≤ 0.05 µg/mL
- MIC [7]: ≤ 0.05 µg/mL
- MIC [8]: 0.78 µg/mL (≈ 2.09 µM)
- MIC [9]: 0.2 µg/mL (≈ 0.536 µM)
- MIC [10]: 0.1 µg/mL (≈ 0.268 µM)
- MIC [11]: 0.2 µg/mL (≈ 0.536 µM)
- MIC [12]: 0.1 µg/mL (≈ 0.268 µM)

Reference: patent US5508428A, “Spiro compound” (Daiichi Phamaceutical Co., Ltd., priority 1988, dated 1996)
